# From EP0429333B1, “Process for producing oxazopyrroloquinolines, novel oxazopyrroloquinolines, and use of oxazopyrroloquinolines” (priority 1989, dated 1991)
# Key:
# [1] = system: B cell; assay: Test on B cell blast transformation reaction, spleen cells of treated mice; assay type: in vivo, C3H/He mice; conditions: for Relative activity (%): no administration = 100
# Method: Cells of spleen of C3H/He mice to which OPQ was administered were obtained in the same manner as in Example 38.
# Further, intake amount of ^3H-thymidine was examined in the same manner as in Example 38 except that 25 µg/ml or 50 µg/ml of lipopolysaccharide (LPS WE E. coli 0111, Difco) was used in place of the concanavalin A as mitogen. Values in the table are average values of intake amount (cpm) of ^3H in culture under four same conditions.
# (§1) In Examples 36 - 40, macrophage activity was examined according to chemotaxis of peritoneal macrophage (literature 1) and activity of T cell and that of B cell were examined according to blast transformation reaction using concanavalin A and lipopolysaccharide, (LPS) as mitogen (literature 2). Literature 1: "Function of Macrophage and Method of Measurement of Function", pages 61-65 1985), edited by Educational Committee of Japan Bacteriological Society and published from Saikon Shuppan Co.) Literature 2: "New Method of Searching of Function of Lymphocytes", pages 350-355 (1987) edited by Junichi Yada and Michio Fujiwara and published from Chugai Igaku Co.
# [2] = system: peritoneal macrophage; assay: Test on macrophage-chemotaxis after intraperitoneal administration; assay type: in vivo, C3H/He mice; conditions: for (2) Chemotaxis factor was present: 50 % zymosan treated serum, no administration 68; for (2) - (1) Chemotaxied macrophage: no administration 58; for Relative activity of group (%): no administration = 100; for (1) Chemotaxis factor was not present: total number of chemotaxied macrophages at 3 points, no administration 10
# Method: Thirtytwo C3H/He mice (male, 7 weeks old, average body weight 20 g, supplied by Japan Charles River Co.) were divided into 4 groups (A - D) of 8 mice each.
# A solution of OPQ in physiological saline of pH 7.0 was intraperitoneally administered to each mouse 7 times, namely, on the 1st day, 2nd day, 3rd day, 4th day, 5th day, 6th day and 7th day. Dosage for one administration per one mouse was as follows: That is, 0.2 ml of the solution containing 0.2 mg/ml of OPQ for group B, 0.2 ml of the solution containing 0.5 mg/ml of OPQ for group C, 0.2 ml of the solution containing 1.0 mg/ml of OPQ for group D and 0.2 ml of physiological saline for group A.
# On the 8th day from starting of the experiment, the mice were anesthetized with ether and blood was drawn from carotid artery and 5 ml of cold Hanks solution was intraperitoneally injected and exudate cells for the abdominal cavity were collected. Exudate cells for the abdominal cavity of respective groups were gathered, washed three times with cold Hanks solution and suspended in RPMI medium at 5 x 10^5 cells/ml and macrophage-chemotaxis was measured. 50 % zymosan treated serum was used as chemotaxis factor and examination was conducted at three points for each sample. Number of chemotaxied macrophage was measured on microscope and 13 visual fields was examined for one point and the results are shown in Table 2. The value in the table is a total number of chemotaxied macrophages at 3 points for each sample. Preparation of Hanks solution and RPMI medium will be explained below.
# Test on macrophage-chemotaxis was conducted in the same manner as in Example 36 except that hydroxymethyl OPQ was intraperitoneally administered to each mouce 3 times of the 1st day, the 2nd day and the 3rd day in the following dosage for one administration per one mouse: 0.2 ml of hydroxymethyl OPQ solution containing 0.5 mg/ml of hydroxymethyl OPQ for group B, 0.2 ml of the solution containing 1.0 mg/ml of hydroxymethyl OPQ for group C, and 0.2 ml of the solution containing 1.5 mg/ml of hydroxymethyl OPQ for group D and exudate cells for the abdominal cavity were collected on the 4th day from starting of experiment.
# as §1
# [3] = system: T cell; assay: Test on T cell blast transformation reaction (1), spleen cells of treated mice; assay type: in vivo, C3H/He mouse; conditions: for Relative activity (%): no administration = 100
# Method: In the same manner as in Example 36, OPQ was administered to C3H/He mouse and the mouse was bred. Dosage of OPQ for one administration per one mouse was 0.2 ml of OPQ solution containing 0.5 mg/ml of OPQ for group B and 0.2 ml of the solution containing 1.0 mg/ml of OPQ for group C and 0.2 ml of physiological saline was administered for group A.
# On the 8th day from starting of experiment, mouse was anesthetized with ether and blood was drawn from carotid artery and spleen was aseptically extracted.
# Cells of the spleen of respective groups were broken up and these cells were floated on tris-NH4Cl hemolytic solution warmed to 37°C and left for 5 minutes at 37°C to hemolyze erythrocytes, followed by washing twice with cold Hanks solution. The cells were suspended in RPMI medium at 4 x 10^6 cells/ml and the suspension was put in a flat bottom microplate of 96 holes. Culture was carried out in the air containing 5 % of CO2 at 37°C using concanavalin A (Type IV Sigma C2010) in an amount of 0.5 µg/ml or 2 µg/ml as mitogen. After 63 hours from starting of culture, ^3H-thymidine was added in an amount of 2.5 µci/ml and culturing was carried out for further 9 hours. Thereafter, cells were gathered on a glass fiber filter by cell harvester and ^3H on this filter was measured by a liquid scintillation counter.
# As control, same four culturings were conducted under the same conditions without adding concanavalin A.
# Values in the table are average values of intake amount (cpm) of ^3H in culture under four same conditions.
# as §1
# [4] = 2 mg/kg mouse x 7 days intraperitoneally
# [5] = 5 mg/kg mouse x 7 days intraperitoneally
# [6] = 10 mg/kg mouse x 7 days intraperitoneally
smiles,measurement,setting,value
"O=C(O)c1cc(C(=O)O)c2c(n1)c1ncoc1c1cc(C(=O)O)[nH]c12 [OPQ, oxazopyrroloquinoline]",Relative activity (%),"[1]; 5mg/kg mouse x 7 days, Lipopolysaccharide 25 µg/ml",108%
same,Relative activity (%),"[1]; 5mg/kg mouse x 7 days, Lipopolysaccharide 50 µg/ml",109%
same,intake amount (cpm) of ^3H,"[1]; 5mg/kg mouse x 7 days, Lipopolysaccharide (LPS) 0 µg/ml, no administration 6562",9303 cpm
same,intake amount (cpm) of ^3H,"[1]; 5mg/kg mouse x 7 days, Lipopolysaccharide (LPS) 25 µg/ml, no administration 34557",37434 cpm
same,intake amount (cpm) of ^3H,"[1]; 5mg/kg mouse x 7 days, Lipopolysaccharide (LPS) 50 µg/ml, no administration 42247",46193 cpm
same,Relative activity (%),"[1]; 10mg/kg mouse x 7 days, Lipopolysaccharide 25 µg/ml",121%
same,Relative activity (%),"[1]; 10mg/kg mouse x 7 days, Lipopolysaccharide 50 µg/ml",126%
same,intake amount (cpm) of ^3H,"[1]; 10mg/kg mouse x 7 days, Lipopolysaccharide (LPS) 0 µg/ml, no administration 6562",9301 cpm
same,intake amount (cpm) of ^3H,"[1]; 10mg/kg mouse x 7 days, Lipopolysaccharide (LPS) 25 µg/ml, no administration 34557",41876 cpm
same,intake amount (cpm) of ^3H,"[1]; 10mg/kg mouse x 7 days, Lipopolysaccharide (LPS) 50 µg/ml, no administration 42247",53267 cpm
same,(2) Chemotaxis factor was present,[2]; [4],107
same,(2) - (1) Chemotaxied macrophage,[2]; [4],96
same,Relative activity of group (%),[2]; [4],166%
same,(1) Chemotaxis factor was not present,[2]; [4],11
same,(2) Chemotaxis factor was present,[2]; [5],96
same,(2) - (1) Chemotaxied macrophage,[2]; [5],87
same,Relative activity of group (%),[2]; [5],150%
same,(1) Chemotaxis factor was not present,[2]; [5],9
same,(2) Chemotaxis factor was present,[2]; [6],180
same,(2) - (1) Chemotaxied macrophage,[2]; [6],173
same,Relative activity of group (%),[2]; [6],298%
same,(1) Chemotaxis factor was not present,[2]; [6],7
same,Relative activity (%),"[3]; 5 mg/kg mouse x 7 days, Concanavalin A 0.5µg/ml",137%
same,Relative activity (%),"[3]; 5 mg/kg mouse x 7 days, Concanavalin A 2.0µg/ml",146%
same,intake amount (cpm) of ^3H,"[3]; 5 mg/kg mouse x 7 days, concanavalin 0 µg/ml, no administration 7312",10796 cpm
same,intake amount (cpm) of ^3H,"[3]; 5 mg/kg mouse x 7 days, concanavalin 0.5 µg/ml, no administration 11637",15942 cpm
same,intake amount (cpm) of ^3H,"[3]; 5 mg/kg mouse x 7 days, concanavalin 2 µg/ml, no administration 96188",140376 cpm
same,Relative activity (%),"[3]; 10 mg/kg mouse x 7 days, Concanavalin A 0.5µg/ml",189%
same,Relative activity (%),"[3]; 10 mg/kg mouse x 7 days, Concanavalin A 2.0µg/ml",150%
same,intake amount (cpm) of ^3H,"[3]; 10 mg/kg mouse x 7 days, concanavalin 0 µg/ml, no administration 7312",9124 cpm
same,intake amount (cpm) of ^3H,"[3]; 10 mg/kg mouse x 7 days, concanavalin 0.5 µg/ml, no administration 11637",21965 cpm
same,intake amount (cpm) of ^3H,"[3]; 10 mg/kg mouse x 7 days, concanavalin 2 µg/ml, no administration 96188",144171 cpm
